Measurements: article PMC6461108, “A catalytic protein–proteomimetic complex: using aromatic oligoamide foldamers as activators of RNase S” (Chemical Science, 2019)
Values joined by “and” are separate entries in the source; they are usually repeats but may differ in a detail not shown here. Identical values can stand only once.

Assays:
p53/hDM2 interaction = p53/hDM2 interaction (Homo sapiens, UniProt Q00987); experiment: Fluorescence anisotropy competition assay against p53/hDM2; type: binding; conditions: FITC-p53 15-31 tracer; for IC50: 50 mM phosphate pH 7.5, 200 mM NaCl, 0.02 mg/mL BSA
From the text: The calculation was run to generate 10 000 conformer sets, of which the lowest energy […]
in total) were retained for docking experiments. The lowest energy conformers belong to the same family of conformers and are well superimposed with the first lowest energy […]
protein (from 4YGW) and S-protein in complex with dApTpApApG (1RCN) using Glide XP method.11-13 All of the input ligands gave a pose in the S-protein binding groove. The […]
12, were refined using the induced fit docking against S-protein in complex with the oligonucleotide. Side chains of S-protein binding groove were automatically trimmed (based on B-factor) during docking calculation and restored for the final refinement.
The library of hybrid mimetics were docked as flexible ligands against the S-protein in complex with the oligonucleotide fragment using Glide XP (extra precision) method.11-13 […]
ligands against S-protein in complex with the oligonucleotide fragment using Glide XP method11-13 and refined using induced fit docking (Fig S7).
The fluorescein-labelled p5315-31–Flu 3,4 was purchased from peptide protein research Ltd.
Fluorescence anisotropy assays were performed in 384-well black plates (Greiner Bio-one). Each experiment was run in triplicate and fluorescence anisotropy was measured using a Perkin Elmer EnVisionTM 2103 MultiLabel plate reader. […]
For control wells in both assays, the tracer peptide was replaced with an identical volume of assay buffer. […] Plates were read after 1 h of incubation at room temperature. […]
The average anisotropy (across three experimental replicates) and the standard deviation of these values were then calculated and fit to a sigmoidal logistic model (Equation 3) using OriginPro 9.0 which provided the IC50 and error values. […]
UV absorbance analyses were recorded in a 1 mm path-length quartz cuvette on a Perkin Elmer Lambda 900 UV/VIS/NIR spectrometer.
High-resolution mass spectrometry (HRMS) data was recorded using electrospray ionization in positive mode (ESI+) with a Bruker MaXis Impact spectrometer. […]

S-protein [1] = target: T1, S-protein (Bos taurus, UniProt P61823); experiment: Isothermal titration calorimetry with S-protein; type: binding, bovine
T1 construct: S-protein22-124; host or cells: none: purchased RNase A digested with subtilisin, S-protein purified by RP-HPLC
T1 sequence (P61823 48-150): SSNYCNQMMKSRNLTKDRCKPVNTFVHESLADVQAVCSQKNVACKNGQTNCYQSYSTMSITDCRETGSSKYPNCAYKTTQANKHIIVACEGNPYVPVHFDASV

S-protein [2] = target: T1, S-protein; experiment: Native ESI-MS of S-protein complexes; type: binding, bovine
RNase S-protein [3] = target: T2, RNase S-protein (Bos taurus, UniProt P61823); experiment: Regulation of S-protein activity by hDM2 (RNA degradation assay); conditions: hDM2 10 μM; 1a 100 μM or S-peptide 0.4 μM with S-protein
T2 sequence (P61823 47-150 limits assumed): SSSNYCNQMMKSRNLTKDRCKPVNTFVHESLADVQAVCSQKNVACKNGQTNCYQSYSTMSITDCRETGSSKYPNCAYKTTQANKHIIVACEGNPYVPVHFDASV

RNase S-protein [4] = target: T3, RNase S-protein (Bos taurus, UniProt P61823); experiment: Kinetics of RNA hydrolysis by S-protein with S-peptide or mimetic; conditions: S-protein 0.05 µM, S-peptide 0.4 µM or 1a 100 µM
T3 sequence (P61823 48-150): T1 sequence (P61823 48-150)

RNase S-protein [5] = target: T3, RNase S-protein; experiment: RNA degradation assay (EtBr fluorescence), reactivation of S-protein; type: biochemical, bovine; set-up: S-protein22-124; host or cells: none: purchased RNase A digested with subtilisin, S-protein purified by RP-HPLC; conditions: for % remaining fluorescence (100 µM): 100 µM compound, 0.05 µM S-protein, 45 min, 25 °C, Tris pH 6.5
[6] = S-protein titrated into mimetic, 37 °C

| Compound | IC50 (p53/hDM2 interaction) | Kd (S-protein [1]) | H (kcal/mol), ITC (S-protein [1]; [6]) | S (cal/molK), ITC (S-protein [1]; [6]) | n (ITC stoichiometry) (S-protein [1]; [6]) | S-protein/mimetic complexes detected by native ESI-MS (S-protein [2]; 5-fold excess of mimetic (10 μM) relative to S-protein (2 μM)) | ternary complex in native MS competition with increasing S-peptide (S-protein [2]; S-protein and 1a constant, increasing S-peptide) | effect of added hDM2 on RNA hydrolysis (RNase S-protein [3]) | V0, average initial rate of RNA degradation (RNase S-protein [4]; CRNA 50) | V0, average initial rate of RNA degradation (RNase S-protein [4]; CRNA 75) | V0, average initial rate of RNA degradation (RNase S-protein [4]; CRNA 125) | V0, average initial rate of RNA degradation (RNase S-protein [4]; CRNA 200) | V0, average initial rate of RNA degradation (RNase S-protein [4]; CRNA 300) | V0, average initial rate of RNA degradation (RNase S-protein [4]; CRNA 425) | V0, average initial rate of RNA degradation (RNase S-protein [4]; CRNA 575) | % remaining fluorescence (100 µM) (RNase S-protein [5]) | activity in RNA degradation assay at a single concentration (SAR set 1a-1d) (RNase S-protein [5]; single concentration, 20 µL of 1 mM stock in 200 µL) | competition with fluorescently labelled p53 peptide for hDM2 (p53/hDM2 interaction) |
| --- | --- | --- | --- | --- | --- | --- | --- | --- | --- | --- | --- | --- | --- | --- | --- | --- | --- | --- |
| CC(C)Oc1cc(NC(=O)[C@H](Cc2ccccc2)NC(=O)c2ccc(N)c(OCc3ccc(Cl)cc3)c2)ccc1C(=O)NCC(=O)O [Compound 1a] | 10.9 µM and ~10 µM | 1.85 ± 0.97 µM | -19.04 ± 1.90 kcal/mol | -35.2 cal/molK | 0.089 and 0.1 | 1 : 1 complex and a lower intensity 1 : 2 S-protein/mimetic 1a complex could be detected | no ternary complex could be detected | suppressed | 0.016 ± 0.001 g/mL/s | 0.04 ± 0.004 g/mL/s | 0.088 ± 0.009 g/mL/s | 0.126 ± 0.011 g/mL/s | 0.168 ± 0.016 g/mL/s | 0.211 ± 0.032 g/mL/s | 0.254 ± 0.053 g/mL/s | 40% | active | – |
| CC(C)Oc1cc(NC(=O)[C@H](Cc2ccccc2)NC(=O)c2ccc(N)c(OCc3ccc4ccccc4c3)c2)ccc1C(=O)NCC(=O)O [Compound 4] | 8.1 ± 0.3 µM | – | – | – | – | – | – | – | – | – | – | – | – | – | – | 44% | – | – |
| Ac-KETAAAKFERQHMDS-NH2 [S-peptide, reference compound] | – | 0.13 ± 0.02 µM | – | – | – | – | – | no effect on catalysis | 0.057 ± 0.002 g/mL/s | 0.097 ± 0.004 g/mL/s | 0.159 ± 0.008 g/mL/s | 0.226 ± 0.011 g/mL/s | 0.296 ± 0.029 g/mL/s | 0.362 ± 0.037 g/mL/s | 0.431 ± 0.050 g/mL/s | – | – | did not compete |
